Assays:
[1] = test system: SLVL (B-Cell Non-Hodgkin's Lymphoma); experiment: combination Emax (second highest fraction inhibited in the dose matrix, 72 h); higher = more inhibition; extreme values may be limits of the assay
Summary of the method: (§1)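 Cell lines grown in DMEM/F12 or RPMI with 10% FBS were plated in 1536-well plates and held 24 hours at 37°C, 5% CO2 before 72 hours of exposure to two-drug dose matrices, with DMSO typically at 0.2%. CellTiter-Glo 2.0 luminescence gave viability, which was converted to inhibition. Vehicle wells were set to 0 and blank wells to 1. Combination Emax is the second-highest inhibition in the matrix, and Bliss excess is the observed combination effect minus the expected EA + EB − EA·EB, where EA and EB are the single-agent effects.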

[2] = test system: MSTO-211H (Mesothelioma); experiment: as above
Summary of the method: as §1

[3] = test system: NOMO-1 (Acute Myeloid Leukemia); experiment: as above
Summary of the method: as §1

[4] = test system: HuO9 (Osteosarcoma); experiment: as above
Summary of the method: as §1

[5] = test system: BICR78 (Oral Cavity Carcinoma); experiment: as above
Summary of the method: as §1

[6] = test system: JHH-6 (Hepatocellular Carcinoma); experiment: as above
Summary of the method: as §1

[7] = test system: MEG-01 (Chronic Myelogenous Leukemia); experiment: as above
Summary of the method: as §1

[8] = test system: PA-TU-8902 (Pancreatic Carcinoma); experiment: as above
Summary of the method: as §1

[9] = test system: HCC38 (Breast Carcinoma); experiment: as above
Summary of the method: as §1

[10] = test system: SK-MEL-1 (Melanoma); experiment: as above
Summary of the method: as §1

[11] = test system: HCT-116 (Colorectal Carcinoma); experiment: as above
Summary of the method: as §1

[12] = test system: MES-SA (Other Solid Carcinomas); experiment: as above
Summary of the method: as §1

[13] = test system: A172 (Glioblastoma); experiment: as above
Summary of the method: as §1

[14] = test system: HLE (Hepatocellular Carcinoma); experiment: as above
Summary of the method: as §1

[15] = test system: SLVL (B-Cell Non-Hodgkin's Lymphoma); experiment: Bliss excess, mean over the matrix (fraction); higher = more synergy
Summary of the method: as §1

[16] = test system: SNU-61 (Colorectal Carcinoma); experiment: as above
Summary of the method: as §1

[17] = test system: D-392MG (Glioblastoma); experiment: as above
Summary of the method: as §1

[18] = test system: SK-UT-1 (Other Solid Carcinomas); experiment: as above
Summary of the method: as §1

[19] = test system: SW48 (Colorectal Carcinoma); experiment: as above
Summary of the method: as §1

[20] = test system: HLE (Hepatocellular Carcinoma); experiment: as above
Summary of the method: as §1
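Wherever Bliss excess, mean over the matrix is given: after 72 h of two-drug dosing.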

## Cc1cc2ncnn2cc1Nc1ncc2c(n1)n(C1CCOCC1)c(=O)n2C [AZD7648] + C=CCn1c(=O)c2cnc(Nc3ccc(N4CCN(C)CC4)cc3)nc2n1-c1cccc(C(C)(C)O)n1 [AZD1775] (first compound max 10 µM, partner max 1 µM)
[1]
  combination Emax: 0.916
[2]
  combination Emax: 0.612
[3]
  combination Emax: 0.961
[4]
  combination Emax: 0.724
[5]
  combination Emax: 0.375
[6]
  combination Emax: 0.311
[7]
  combination Emax: 0.923
[8]
  combination Emax: 0.348
[9]
  combination Emax: 0.531
[10]
  combination Emax: 0.399
[11]
  combination Emax: 0.633
[12]
  combination Emax: 0.75
[13]
  combination Emax: 0.617
[14]
  combination Emax: 0.66
[15]
  Bliss excess: -0.035
[16]
  Bliss excess: -0.049
[17]
  Bliss excess: 0.0035
[18]
  Bliss excess: 0.0203
[19]
  Bliss excess: -0.0702
[20]
  Bliss excess: -0.0273

## COc1nnc2ccc(N3CCC(c4ccc(OCCN5CCN(C)C(=O)[C@H]5C)cc4)CC3)nn12 [AZD5153] + C=CCn1c(=O)c2cnc(Nc3ccc(N4CCN(C)CC4)cc3)nc2n1-c1cccc(C(C)(C)O)n1 [AZD1775] (first compound max 1 µM, partner max 1 µM)
[1]
  combination Emax: 0.738
[2]
  combination Emax: 0.255
[3]
  combination Emax: 0.983
[4]
  combination Emax: 0.919
[5]
  combination Emax: 0.482
[6]
  combination Emax: 0.53
[7]
  combination Emax: 0.945
[8]
  combination Emax: 0.502
[9]
  combination Emax: 0.433
[10]
  combination Emax: 0.568
[11]
  combination Emax: 0.788
[12]
  combination Emax: 0.685
[13]
  combination Emax: 0.543
[14]
  combination Emax: 0.61
[15]
  Bliss excess: -0.142
[16]
  Bliss excess: -0.0041
[17]
  Bliss excess: -0.0797
[18]
  Bliss excess: -0.0323
[19]
  Bliss excess: -0.0699
[20]
  Bliss excess: 0.0069

## COc1nnc2ccc(N3CCC(c4ccc(OCCN5CCN(C)C(=O)[C@H]5C)cc4)CC3)nn12 [AZD5153] + CC1(C)CCC(CN2CCN(c3ccc(C(=O)NS(=O)(=O)c4ccc(NCC5CCOCC5)c([N+](=O)[O-])c4)c(Oc4cnc5[nH]ccc5c4)c3)CC2)=C(c2ccc(Cl)cc2)C1 [Venetoclax] (first compound max 1 µM, 7x7, partner max 1 µM)
[1]
  combination Emax: 0.802
[2]
  combination Emax: 0.271
[3]
  combination Emax: 1
[4]
  combination Emax: 0.796
[5]
  combination Emax: 0.468
[6]
  combination Emax: 0.463
[7]
  combination Emax: 0.889
[8]
  combination Emax: 0.275
[9]
  combination Emax: 0.458
[10]
  combination Emax: 0.625
[11]
  combination Emax: 0.666
[12]
  combination Emax: 0.386
[13]
  combination Emax: 0.479
[14]
  combination Emax: 0.336
[15]
  Bliss excess: -0.0277
[16]
  Bliss excess: -0.0374
[17]
  Bliss excess: -0.0961
[18]
  Bliss excess: -0.0459
[19]
  Bliss excess: -0.0081
[20]
  Bliss excess: -0.0522

## CN(CCO)CC[C@H](CSc1ccccc1)Nc1ccc(S(=O)(=O)NC(=O)c2ccc(N3CCC([C@@H](O)c4ccccc4-c4ccc(Cl)cc4)CC3)cc2)cc1S(=O)(=O)C(F)(F)F [AZD4320] + CN(C)CCCOc1ccc(-c2ccc3ncc4c(c3c2)n(C2CCOCC2)c(=O)n4C)cn1 [AZD0156] (first compound max 1 µM, 7x7, partner max 1 µM)
[1]
  combination Emax: 0.461
[2]
  combination Emax: 0.435
[3]
  combination Emax: 0.377
[4]
  combination Emax: 0.79
[5]
  combination Emax: 0.134
[6]
  combination Emax: 0.129
[7]
  combination Emax: 0.898
[8]
  combination Emax: 0.0883
[9]
  combination Emax: 0.812
[10]
  combination Emax: 0.498
[11]
  combination Emax: 0.167
[12]
  combination Emax: 0.128
[13]
  combination Emax: 0.176
[14]
  combination Emax: 0.399
[15]
  Bliss excess: -0.0117
[16]
  Bliss excess: -0.0248
[17]
  Bliss excess: -0.044
[18]
  Bliss excess: -0.0284
[19]
  Bliss excess: -0.0545
[20]
  Bliss excess: -0.0209

## COc1nnc2ccc(N3CCC(c4ccc(OCCN5CCN(C)C(=O)[C@H]5C)cc4)CC3)nn12 [AZD5153] + Cn1cnc2c(F)c(Nc3ccc(Br)cc3Cl)c(C(=O)NOCCO)cc21 [Selumetinib] (first compound max 1 µM, 7x7, partner max 10 µM)
[1]
  combination Emax: 0.738
[2]
  combination Emax: 0.41
[3]
  combination Emax: 1
[4]
  combination Emax: 0.706
[5]
  combination Emax: 0.548
[6]
  combination Emax: 0.507
[7]
  combination Emax: 0.988
[8]
  combination Emax: 0.527
[9]
  combination Emax: 0.342
[10]
  combination Emax: 0.983
[11]
  combination Emax: 0.866
[12]
  combination Emax: 0.478
[13]
  combination Emax: 0.511
[14]
  combination Emax: 0.341
[15]
  Bliss excess: -0.0385
[16]
  Bliss excess: 0.0407
[17]
  Bliss excess: 0.0081
[18]
  Bliss excess: 0.0089
[19]
  Bliss excess: 0.0619
[20]
  Bliss excess: 0.0073

## CC1(C)CCC(CN2CCN(c3ccc(C(=O)NS(=O)(=O)c4ccc(NCC5CCOCC5)c([N+](=O)[O-])c4)c(Oc4cnc5[nH]ccc5c4)c3)CC2)=C(c2ccc(Cl)cc2)C1 [Venetoclax] + COc1cc(Nc2ncc3c(n2)-c2ccc(Cl)cc2C(c2c(F)cccc2OC)=NC3)ccc1C(=O)O [Alisertib] (first compound max 1 µM, 7x7, partner max 10 µM)
[1]
  combination Emax: 0.932
[2]
  combination Emax: 0.734
[3]
  combination Emax: 0.884
[4]
  combination Emax: 0.682
[5]
  combination Emax: 0.38
[6]
  combination Emax: 0.301
[7]
  combination Emax: 0.817
[8]
  combination Emax: 0.394
[9]
  combination Emax: 0.179
[10]
  combination Emax: 0.351
[11]
  combination Emax: 0.581
[12]
  combination Emax: 0.671
[13]
  combination Emax: 0.595
[14]
  combination Emax: 0.598
[15]
  Bliss excess: 0.0761
[16]
  Bliss excess: -0.0091
[17]
  Bliss excess: -0.042
[18]
  Bliss excess: 0.0971
[19]
  Bliss excess: -0.0083
[20]
  Bliss excess: 0.0066

## CN(CCO)CC[C@H](CSc1ccccc1)Nc1ccc(S(=O)(=O)NC(=O)c2ccc(N3CCC([C@@H](O)c4ccccc4-c4ccc(Cl)cc4)CC3)cc2)cc1S(=O)(=O)C(F)(F)F [AZD4320] + C[C@@H](Nc1cc(F)cc(F)c1)c1cc(C(=O)N(C)C)cc2c(=O)cc(N3CCOCC3)oc12 [AZD8186] (first compound max 1 µM, 7x7, partner max 3 µM)
[1]
  combination Emax: 0.955
[2]
  combination Emax: 0.751
[3]
  combination Emax: 0.636
[4]
  combination Emax: 0.953
[5]
  combination Emax: 0.446
[6]
  combination Emax: 0.326
[7]
  combination Emax: 0.773
[8]
  combination Emax: 0.387
[9]
  combination Emax: 0.884
[10]
  combination Emax: 0.722
[11]
  combination Emax: 0.686
[12]
  combination Emax: 0.297
[13]
  combination Emax: 0.327
[14]
  combination Emax: 0.48
[15]
  Bliss excess: 0.0476
[16]
  Bliss excess: 0.016
[17]
  Bliss excess: -0.104
[18]
  Bliss excess: 0.002
[19]
  Bliss excess: -0.0048
[20]
  Bliss excess: -0.0428

## COc1nnc2ccc(N3CCC(c4ccc(OCCN5CCN(C)C(=O)[C@H]5C)cc4)CC3)nn12 [AZD5153] + C[C@@H]1COCCN1C2=NC(=NC(=C2)C3(CC3)[S@](=N)(=O)C)C4=C5C=CNC5=NC=C4 [AZD6738] (first compound max 1 µM, 7x7, partner max 10 µM)
[1]
  combination Emax: 0.689
[2]
  combination Emax: 0.359
[3]
  combination Emax: 1
[4]
  combination Emax: 0.938
[5]
  combination Emax: 0.636
[6]
  combination Emax: 0.705
[7]
  combination Emax: 0.966
[8]
  combination Emax: 0.392
[9]
  combination Emax: 0.486
[10]
  combination Emax: 0.689
[11]
  combination Emax: 0.88
[12]
  combination Emax: 0.763
[13]
  combination Emax: 0.739
[14]
  combination Emax: 0.689
[15]
  Bliss excess: -0.13
[16]
  Bliss excess: 0.0459
[17]
  Bliss excess: -0.0033
[18]
  Bliss excess: 0.0401
[19]
  Bliss excess: -0.109
[20]
  Bliss excess: 0.0608

Source: the supplement of paper PMC11061612
